Test results published in patent publication US9932300B2, “N,N′-diarylurea compounds and N,N′-diarylthiourea compounds as inhibitors of translation initiation” (President and Fellows of Harvard College, priority 2009, dated 2018).
Several values for one entry are separate records, joined by “and”; a condition that tells them apart may be missing. Equal entries are not always repeated.

Test system: eIF2-GTP-Met-tRNAi ternary complex
Assay: Ternary complex assay (dual luciferase, firefly/renilla ratio) in stable KLN-tTA/pBISA-DL(ATF-4) cells; HTS and hit confirmation
Assay type: cell-based, mouse
Set-up: Activity 10 uM / Activity 2.5 uM / Activity 5 uM: unit not given here
Settings: for Activity 2.5 uM: compound at 2.5 uM; for Activity 2.5 uM / Activity 10 uM / Activity 5 uM: confirmed hits of the screen (Table 5); for Activity 10 uM: compound at 10 uM; for Activity 5 uM: compound at 5 uM

O=C1/C(=C/c2ccc(O)c(O)c2)CCC/C1=C\c1ccc(O)c(O)c1 [Compound 652890]
Activity 2.5 uM: 2.23
Activity 10 uM: 7.57

COc1ccc(-c2nnc(-c3nsc4ccccc34)o2)cc1 [Compound 652917]
Activity 2.5 uM: 2.33
Activity 10 uM: 3.31

COc1ccc(Nc2nnc(-c3nsc4ccccc34)s2)cc1 [Compound 652924]
Activity 2.5 uM: 1.78
Activity 10 uM: 3.58

CCN(CC)CCCNc1ncc(C)c2c1c1ccc3c(O)cccc3c1n2C [Compound 653438]
Activity 2.5 uM: 0.755
Activity 10 uM: 12.32

CCSc1nnc(-c2ccccc2)nc1Cc1ccc(OC)cc1 [Compound 655141]
Activity 2.5 uM: 2.18
Activity 10 uM: 3.91

O=C1C(c2ccc([N+](=O)[O-])cc2)=C(Cl)C(=O)c2c(O)cccc21 [Compound 656075]
Activity 2.5 uM: 2.33
Activity 10 uM: 7.97

O=C1C(Cl)=C(c2ccc([N+](=O)[O-])cc2)C(=O)c2c(O)cccc21 [Compound 656076]
Activity 2.5 uM: 4.6
Activity 10 uM: 17.27

CCN(CC)Cc1cc(Nc2c3ccccc3nc3c2[nH]c2ccccc23)cc(CN(CC)CC)c1O.Cl [Compound 656711]
Activity 2.5 uM: 0.59
Activity 10 uM: 6.66

Cc1ccc(C2=Nc3cccc4cccc(c34)N2)cc1 [Compound 657189]
Activity 2.5 uM: 2.65
Activity 10 uM: 3.16

CC(=O)C1C(=O)C(=O)N(c2ccc([N+](=O)[O-])cc2)C1=O.[Na+] (stereo not shown) [Compound 657424]
Activity 2.5 uM: 1.17
Activity 10 uM: 3.36

COc1ccc(-c2nc(Nc3ccccc3)sc2Cc2sc(Nc3ccccc3)nc2-c2ccc(OC)cc2)cc1 [Compound 658163]
Activity 2.5 uM: 2.63
Activity 10 uM: 4.46

CCN1CCNc2c3cc(OC)ccc3nc3c([N+](=O)[O-])ccc1c23 [Compound 658354]
Activity 2.5 uM: 0.2379
Activity 10 uM: 6.609

COc1ccc2nc3c([N+](=O)[O-])ccc4c3c(c2c1)NCCN4CCO [Compound 658355]
Activity 2.5 uM: 0.5
Activity 10 uM: 8.48

COc1ccc2c(c1)c1c3c(ccc4ncn2c43)N(CCO)CCN=1 [Compound 658358]
Activity 2.5 uM: 0.4
Activity 10 uM: 20.35

Cl.Cn1c(N)nc(-c2ccc(Cl)cc2)c1SSc1c(-c2ccc(Cl)cc2)nc(N)n1C [Compound 658830]
Activity 2.5 uM: 0.48
Activity 10 uM: 4.21

CCn1c(O)c(C=Nc2ccccc2)s/c1=N/Nc1nc(C)cs1 [Compound 658916]
Activity 2.5 uM: 2.047
Activity 10 uM: 3.18

O=C(CC(=O)Nc1ccccc1Cl)NNC(c1cc(N=Nc2ccc(Br)cc2)ccc1O)P(O)O (stereo not shown) [Compound 659608]
Activity 2.5 uM: 1.34
Activity 10 uM: 3.07

O=C1C=CC(=O)c2c1ccc1c3ccccc3n(-c3cccc([N+](=O)[O-])c3)c21 [Compound 661223]
Activity 2.5 uM: 1.05
Activity 10 uM: 11.8

Cn1c2ccccc2c2c(-c3ccccc3)cc3c(c21)C(=O)C=CC3=O [Compound 661225]
Activity 2.5 uM: 1.76
Activity 10 uM: 25.16

[Ru].[SH+]=C([SH2+])N1CCCCC1.[SH+]=C([SH2+])N1CCCCC1 [Compound 662875]
Activity 2.5 uM: 10.55
Activity 10 uM: 40.72

O=c1n(-c2ccc(Cl)c(Cl)c2)c(=O)n(-c2ccc(Cl)c(Cl)c2)c(=O)n1-c1ccc(Cl)c(Cl)c1 [Compound 664259]
Activity 2.5 uM: 2.76
Activity 10 uM: 4.24

Cc1nc2ccc(Br)cc2c(=O)n1-c1ccc(NC2OC(CO)C(O)C(O)C2O)cc1 (stereo not shown) [Compound 665512]
Activity 2.5 uM: 0.47
Activity 10 uM: 15.46

c1cc(-c2ncc(-c3ccc4c(c3)CCCO4)o2)ccn1 [Compound 665702]
Activity 2.5 uM: 1.79
Activity 10 uM: 3.38

Cc1ccc(S(=O)(=O)n2c3c(c4ccccc42)CCN2C(=O)C(S(=O)(=O)c4ccccc4)=CCC32)cc1 (stereo not shown) [Compound 665910]
Activity 2.5 uM: 0.72
Activity 10 uM: 4.69

N#Cc1c(N)nc([Se]CC(=O)c2ccc(Cl)cc2)c(C#N)c1-c1ccco1 [Compound 666131]
Activity 2.5 uM: 4.12
Activity 10 uM: 8.72

COc1ccc(/C=N/Nc2nc3ccccc3c(=O)n2-c2ccccc2)cc1 [Compound 666356]
Activity 2.5 uM: 2.43
Activity 10 uM: 30.26

COc1ccc(C2Oc3c(cccc3OC)C=C2[N+](=O)[O-])cc1 (stereo not shown) [Compound 667223]
Activity 10 uM: 6.01 and 8.726

COc1cccc2c1OC(c1ccc(C#N)cc1)C([N+](=O)[O-])=C2 (stereo not shown) [Compound 667226]
Activity 2.5 uM: 0.34
Activity 10 uM: 4.79

S=C1CC(c2ccccc2)Sc2ccccc2N1 (stereo not shown) [Compound 667463]
Activity 2.5 uM: 3.13
Activity 10 uM: 3.45

O=[N+]([O-])C1=Cc2cc(Cl)ccc2OC1c1cccc2ccccc12 (stereo not shown) [Compound 667472]
Activity 2.5 uM: 0.35
Activity 10 uM: 9.48

Cc1cccc(/C=N\NC(=S)N2CCCCC2)n1 [Compound 667875]
Activity 2.5 uM: 4.59
Activity 10 uM: 7.27

S=C(N/N=C/c1ccccn1)N1CC2CCC(CC2)C1 [Compound 667885]
Activity 2.5 uM: 8.61
Activity 10 uM: 15.62

C=C1CC(C)(COc2ccc3c(C)cc(=O)oc3c2)OC1=O (stereo not shown) [Compound 668262]
Activity 2.5 uM: 0.78
Activity 10 uM: 3.33

COc1ccccc1NC(=S)N/N=C(/C)c1ccccn1 [Compound 668297]
Activity 2.5 uM: 10.51
Activity 10 uM: 37.53

COc1ccccc1NC(=S)N/N=C/c1ccccn1 [Compound 668298]
Activity 2.5 uM: 11.99
Activity 10 uM: 30.06

C/C(=N/NC(=S)Nc1ccccc1C)c1ccccn1 [Compound 668332]
Activity 2.5 uM: 27.24
Activity 10 uM: 63.38

C/C(=N/NC(=S)Nc1cccc(Cl)c1)c1cccc(/C(C)=N\NC(=S)Nc2cccc(Cl)c2)n1 [Compound 668484]
Activity 2.5 uM: 1.59
Activity 10 uM: 3.57

Oc1[nH]c2ccccc2c1N=NC(=S)N1CCCC1 [Compound 668494]
Activity 2.5 uM: 3.76
Activity 10 uM: 13.68

O=C1C=CC(=O)c2c1ccc1c3ccccc3n(CCCCCn3c4ccccc4c4ccc5c(c43)C(=O)C=CC5=O)c21 [Compound 668605]
Activity 2.5 uM: 0.8
Activity 10 uM: 3.17

S=C(NCCc1ccccn1)N/N=C/c1ccccn1 [Compound 670779]
Activity 2.5 uM: 2.57 and 2.721
Activity 10 uM: 6.67 and 8.739

C/C(=N/NC(=S)NC(C)(C)C)c1ccccn1 [Compound 670788]
Activity 2.5 uM: 6.58
Activity 10 uM: 4.08

S=C(N/N=C/c1ccccn1)Nc1ccc(Cl)cc1 [Compound 670965]
Activity 2.5 uM: 50.7 and 44.32
Activity 10 uM: 23.32 and 25.3088

S=C(NCc1ccccc1)N/N=C/c1ccccn1 [Compound 670969]
Activity 2.5 uM: 1.55
Activity 10 uM: 3.644

[CH+]=CC1([O][Sn-]([IH+])([c]2ccccc2)[c]2ccccc2)CCCCCC1 [Compound 671441]
Activity 2.5 uM: 5.35

Cc1cc[c]([Sn]([I])([O]C2(C=O)CCCCCC2)[c]2ccc(C)cc2)cc1 [Compound 671442]
Activity 2.5 uM: 9.59
Activity 10 uM: 7.03

CCCCCCCN1C(=O)C(O)(c2ccc(C3(O)C(=O)N(CCCCCCC)c4ccccc43)s2)c2ccccc21 (stereo not shown) [Compound 671896]
Activity 2.5 uM: 0.85
Activity 10 uM: 4.31

COc1ccc2nc3cccc([N+](=O)[O-])c3c(NCCCO)c2c1 [Compound 673797]
Activity 2.5 uM: 2.54
Activity 10 uM: 4.7

Cc1cn(C2OC(CO[Si](C)(C)C(C)(C)C)C(N(C)O[Si](C)(C)C(C)(C)C)C2[Se]c2ccccc2)c(=O)[nH]c1=O (stereo not shown) [Compound 674469]
Activity 2.5 uM: 1.37
Activity 10 uM: 23.82

Cc1cc(C)n(C(=C(C(Cl)=C(Cl)Cl)[N+](=O)[O-])n2nc(C)cc2C)n1 [Compound 678036]
Activity 2.5 uM: 0.85
Activity 10 uM: 12.77

CC(C)[Si]1(C(C)C)OCC2OC(N3C(=O)NC(=O)C[C@@H]3C(O)c3ccccc3)CC2O[Si](C(C)C)(C(C)C)O1 (stereo partly shown) [Compound 680834]
Activity 2.5 uM: 0.76
Activity 10 uM: 4.25

CN1/C(=C/C=C/C=C/C=C2C(=O)c3ccccc3C2=O)C(C)(C)c2ccccc21 [Compound 682512]
Activity 2.5 uM: 0.57
Activity 10 uM: 10.02

c1ccc(-c2ccc(N=NN3CCCC3)cc2)cc1 [Compound 687753]
Activity 5 uM: 4.922
Activity 10 uM: 6.931

C=CC(=O)N1C/C(=C\c2ccc(Cl)cc2)C(=O)/C(=C/c2ccc(Cl)cc2)C1 [Compound 687849]
Activity 2.5 uM: 0.88
Activity 10 uM: 12.02

CN(C)c1ccc(/C=C2\CCCCCC2=O)cc1 [Compound 689962]
Activity 5 uM: 4.784
Activity 10 uM: 7.987

Cn1/c(=N\S(=O)(=O)c2ccccc2)n(S(=O)(=O)c2ccccc2)c2ccccc21 [Compound 690404]
Activity 2.5 uM: 1.46
Activity 10 uM: 3.03

COc1cc(/C=C2\CCC(C)/C(=C\c3cc(OC)c(OC)c(OC)c3)C2=O)cc(OC)c1OC (stereo not shown) [Compound 690734]
Activity 2.5 uM: 0.48
Activity 10 uM: 10.02

FC(F)(Sc1ccccc1)c1nc2ccccc2o1 [Compound 691255]
Activity 5 uM: 3.963
Activity 10 uM: 5.5705

FC(F)(Sc1ccccn1)c1nc2ccccc2o1 [Compound 691256]
Activity 5 uM: 4.563
Activity 10 uM: 5.7865

Cn1ccnc1SC(F)(F)c1nc2ccccc2o1 [Compound 691258]
Activity 5 uM: 3.891
Activity 10 uM: 3.904

O=[N+]([O-])c1cccc(-c2cn3c(n2)Cc2ccccc2C3)c1 [Compound 693037]
Activity 5 uM: 6.794
Activity 10 uM: 8.088

COc1ccc(N=[N+]([O-])c2ccc(OC)cc2)cc1 [Compound 694092]
Activity 5 uM: 4.958
Activity 10 uM: 5.898

CO[C@@]12[C@H](COC(N)=O)C3=C(C(=O)C(C)=C(N)C3=O)N1C[C@@H]1N[C@@H]12 [mitomycin, reference compound]
Effect on firefly/renilla luciferase ratio (KLN-tTA/pBISA-DL(ATF-4) colonies, assay validation): no effect
